Results taken from ChEMBL document CHEMBL1151290, “Chemical constituents of Brazilian propolis and their cytotoxic activities” (1998).
Converted amounts (≈) assume the structure as drawn.

Columns and labels:
HT-1080 = assay: Cytotoxicity against human HT1080 cells after 24 hrs by MTT assay; format: functional; conditions: HT-1080, 24 h, read-out: ED50 (the source's name)
[1] = Cytotoxicity against mouse 26-L5 cells after 24 hrs by MTT assay; format: functional; conditions: read-out: ED50 (the source's name)

Row | Compound | EC50 (HT-1080) | EC50 [1]
1 | C=C(CO)[C@H]1Cc2cc(C(C)=O)c(O)cc2O1 | 45.5 µg/mL (≈ 194 µM) | 57.1 µg/mL (≈ 244 µM)
2 | C=C1CC[C@@H]2[C@](C)(CCC[C@]2(C)C(=O)O)[C@H]1CC/C(C)=C/COC(C)=O | 70.1 µg/mL (≈ 193 µM) | 73.3 µg/mL (≈ 202 µM)
3 | CC(C)=CCc1cc(/C=C/C(=O)O)cc2c1OC(C)(C)C(O)C2 (stereo unspecified) | 71.5 µg/mL (≈ 226 µM) | 77.1 µg/mL (≈ 244 µM)
4 | COc1ccc([C@H]2Oc3cc(O)cc(O)c3C(=O)[C@@H]2O)cc1 | 27 µg/mL (≈ 89.2 µM) | 71 µg/mL (≈ 235 µM)
5 | C=C1CC[C@@H]2[C@](C)(CCC[C@]2(C)C(=O)O)[C@H]1CC/C(C)=C/C(=O)OC | 72.8 µg/mL (≈ 209 µM) | > 100 µg/mL
6 | C=C1CC[C@@H]2[C@](C)(CCC[C@]2(C)C(=O)O)[C@H]1CC/C(C)=C/C(=O)O [AGATHIC ACID] | 75.4 µg/mL (≈ 226 µM) | 95.9 µg/mL (≈ 287 µM)
7 | CC(C)=CCc1cc(/C=C/C(=O)O)cc(CC=C(C)C)c1O [ARTEPILLIN] | 45.5 µg/mL (≈ 151 µM) | 59.3 µg/mL (≈ 197 µM)
8 | CC(C)=CCc1cc(/C=C/C(=O)O)ccc1OC(=O)CCc1ccccc1 [BACCHARIN] | 25.9 µg/mL (≈ 71.2 µM) | 77.9 µg/mL (≈ 214 µM)
9 | COc1ccc(-c2oc3cc(O)c(OC)c(O)c3c(=O)c2O)cc1 [BETULETOL] | 5.83 µg/mL (≈ 17.7 µM) | 4.95 µg/mL (≈ 15 µM)
10 | COc1cc(/C=C/C=O)ccc1O [CONIFERYL ALDEHYDE] | 4.05 µg/mL (≈ 22.7 µM) | 10.4 µg/mL (≈ 58.6 µM)
11 | CC(C)=CCc1cc(/C=C/C(=O)O)cc2c1OC(C)(C)C=C2 [CULIFOLIN] | 46.9 µg/mL (≈ 157 µM) | 50.2 µg/mL (≈ 168 µM)
12 | C=C[C@](C)(O)CC[C@H]1C(=C)CC[C@@H]2[C@]1(C)CCC[C@]2(C)C(=O)O [CUPRESSICACID] | 94.9 µg/mL (≈ 296 µM) | > 100 µg/mL
13 | COc1cc([C@H]2Oc3c(OC)cc(/C=C/COC(C)=O)cc3[C@@H]2COC(C)=O)ccc1O [DIMERICCONIFERYLACETATE] | 38.9 µg/mL (≈ 88 µM) | 39.9 µg/mL (≈ 90.1 µM)
14 | COc1cccc2c1C(=O)c1c(O)c3c(c(O)c1C2=O)C[C@@](O)(C(=O)CO)C[C@@H]3O[C@H]1C[C@H](N)[C@H](O)[C@H](C)O1.Cl [DOXORUBICIN HYDROCHLORIDE] | 0.034 µg/mL | 0.015 µg/mL
15 | COc1ccc(-c2oc3cc(O)cc(O)c3c(=O)c2OC)cc1 [ERMANIN] | 2.3 µg/mL (≈ 7.32 µM) | 7.64 µg/mL (≈ 24.3 µM)
16 | C=C1CC[C@@H]2[C@](C)(CCC[C@]2(C)C(=O)O)[C@H]1CC/C(C)=C/CO [ISOCUPRESSIC ACID] | 72.9 µg/mL (≈ 228 µM) | 63.5 µg/mL (≈ 198 µM)
17 | COc1ccc(-c2oc3cc(O)cc(O)c3c(=O)c2O)cc1 [KAEMPFERIDE] | 2.91 µg/mL (≈ 9.69 µM) | 5.95 µg/mL (≈ 19.8 µM)
18 | C=C(C)[C@H]1Cc2cc(C(C)=O)ccc2O1 [TREMETONE] | 57.4 µg/mL (≈ 284 µM) | 58.1 µg/mL (≈ 287 µM)
